Our source for the EC50 values is patent publication US20120022054A1, “NOVEL SUBSTITUTED ARYL DERIVATIVES, THEIR PROCESS OF PREPARATION AND THEIR THERAPEUTICAL USES AS ANTI-HIV AGENTS” (priority 2008, published 2012).

The term EC50 denotes the concentration giving half of the maximal effect.

One assay concerns NL4-3 strain of HIV-1. The experiment in a line: Multiple cycle infection assay of CAp24 antigen production. The class given is cell-based. Conditions: Human immunodeficiency virus 1, NL43, SUP-T1, 96 h, multiple cycle infection with NL4-3 virus, SupT1, MT4 or PBMC, MOI 0.01, day 4 and day −6 post-infection; threshold below 5 μM; read-out: EC50 for antiviral activity (50% inhibition of CA p24 production).

The subject of assay [1] is Env-deleted NL4-3 vector virus pseudotyped with the VSV g envelope. The assay is described as follows: microbe, parasite or virus in culture. Type of assay: cell-based, HIV-1. The note with it: Vesicular stomatitis virus, NL43, SUP-T1, 48 h, read-out: EC50 for antiviral activity (50% inhibition of luciferase activity).

Turning to `CN(Cc1ccccc1N1CCOCC1)C(=O)CCCSc1ccc(O)cc1` [Example 11, 4-[(4-Hydroxyphenyl)thio]-N-methyl-N-(2-morpholin-4-ylbenzyl)butanamide], the EC50 (with NL4-3 strain of HIV-1; in assay [1]) was below 5 µM throughout.
`COc1ccccc1CN(C)C(=O)CCCCSc1ccc(O)cc1` [Example 12, 5-[(4-Hydroxyphenyl)thio]-N-(2-methoxybenzyl)-N-methylpentanamide]: the concentration giving a half-maximal response (EC50) (in the assay on NL4-3 strain of HIV-1; in assay [1]) was below 5 µM in each case.
For `CN1CCN(c2ccccc2CN(C)C(=O)CCCSc2ccc(O)cc2)CC1` [Example 13, 4-[(4-Hydroxyphenyl)thio]-N-methyl-N-[2-(4-methylpiperazin-1-yl)benzyl]-butanamide], the EC50 (in the assay on NL4-3 strain of HIV-1; in assay [1]) was below 5 µM in each case.
`CN(Cc1ccccc1Cl)C(=O)CCCSc1ccc(F)cc1` [Example 14, N-(2-Chlorobenzyl)-4-[(4-fluorophenyl)thio]-N-methylbutanamide]: the EC50 (in the assay with NL4-3 strain of HIV-1; in assay [1]) was below 5 µM in each case.
For the molecule `CN(Cc1ccccc1C(F)(F)F)C(=O)CCCSc1ccc(O)cc1` [Example 15, 4-[(4-Hydroxyphenyl)thio]-N-methyl-N-[2-(trifluoromethyl)benzyl]butanamide], the EC50 (with NL4-3 strain of HIV-1; in assay [1]) was below 5 µM each time.
With `COc1ccccc1CN(C)C(=O)CCCSc1ccc2ccccc2c1` [Example 17, N-(2-Methoxybenzyl)-N-methyl-4-(2-naphthylthio)butanamide], the EC50 (with NL4-3 strain of HIV-1; in assay [1]) was below 5 µM throughout.
With `COc1ccccc1CN(C)C(=O)CCCCc1ccc(O)cc1` [Example 19, 5-(4-Hydroxyphenyl)-N-(2-methoxybenzyl)-N-methylpentanamide], the EC50 (in the assay with NL4-3 strain of HIV-1; in assay [1]) was below 5 µM in each case.
Consider `COc1ccccc1CN(C)C(=O)CCCSc1ccc(NC(C)=O)cc1` [Example 20, 4-{[4-(Acetylamino)phenyl]thio}-N-(2-methoxybenzyl)-N-methylbutanamide], for which the EC50 (in the assay with NL4-3 strain of HIV-1; in assay [1]) was below 5 µM throughout.
As for `CN(Cc1cccc2c1OCC2)C(=O)CCCSc1ccc(O)cc1` [Example 22, N-(2,3-Dihydro-1-benzofuran-7-ylmethyl)-4-[(4-hydroxyphenyl)thio]-N-methylbutanamide], the EC50 (in the assay with NL4-3 strain of HIV-1; in assay [1]) was below 5 µM throughout.
With `COc1ccccc1CN(C)C(=O)CCCSc1cccc(O)c1` [Example 26, 4-[(3-hydroxyphenyl)thio]-N-(2-methoxybenzyl)-N-methylbutanamide], the EC50 (in the assay with NL4-3 strain of HIV-1; in assay [1]) was below 5 µM throughout.
Consider `CN(Cc1ccccc1OC(F)(F)F)C(=O)CCCSc1ccc(O)cc1` [Example 27, 4-[(4-hydroxyphenyl)thio]-N-methyl-N-[2-(trifluoromethoxy)benzyl]butanamide], for which the EC50 (in the assay with NL4-3 strain of HIV-1; in assay [1]) was below 5 µM throughout.
Regarding `COc1cccc(CN(C)C(=O)CCCSc2ccc(O)cc2)c1OC` [Example 29, N-(2,3-dimethoxybenzyl)-4-[(4-hydroxyphenyl)thio]-N-methylbutanamide], the 50% effective concentration (EC50) (with NL4-3 strain of HIV-1; in assay [1]) was below 5 µM throughout.
`CCOc1ccccc1CN(C)C(=O)CCCSc1ccc(O)cc1` [Example 30, N-(2-ethoxybenzyl)-4-[(4-hydroxyphenyl)thio]-N-methylbutanamide]: the concentration for a half-maximal effect (EC50) (in the assay on NL4-3 strain of HIV-1; in assay [1]) was below 5 µM in each case.
For the molecule `CN(Cc1c(F)cccc1Cl)C(=O)CCCSc1ccc(O)cc1` [Example 31, N-(2-chloro-6-fluorobenzyl)-4-[(4-hydroxyphenyl)thio]-N-methylbutanamide], the concentration for a half-maximal effect (EC50) (in the assay on NL4-3 strain of HIV-1; in assay [1]) was below 5 µM in each case.
As to `CN(Cc1cccc(Cl)c1Cl)C(=O)CCCSc1ccc(O)cc1` [Example 34, N-(2,3-Dichlorobenzyl)-4-[(4-hydroxyphenyl)thio]-N-methylbutanamide], the EC50 (in the assay with NL4-3 strain of HIV-1; in assay [1]) was below 5 µM each time.
As to `COc1ccccc1CN(C)C(=O)CCCSc1ccc(O)cc1` [Example 35, 4-[(4-Hydroxyphenyl)thio]-N-(2-methoxybenzyl)-N-methylbutanamide], the half-maximal effective concentration (EC50) (with NL4-3 strain of HIV-1; in assay [1]) was below 5 µM throughout.
As for `Cc1ccccc1CN(C)C(=O)CCCSc1ccc(O)cc1` [Example 37, 4-[(4-Hydroxyphenyl)thio]-N-methyl-N-(2-methylbenzyl)butanamide], the concentration giving a half-maximal response (EC50) (with NL4-3 strain of HIV-1; in assay [1]) was below 5 µM each time.
As for `COc1ccccc1CN(C)C(=O)CCCSc1ccc2ccccc2n1` [Example 39, N-(2-Methoxybenzyl)-N-methyl-4-(quinolin-2-ylthio)butanamide], the EC50 (in the assay with NL4-3 strain of HIV-1; in assay [1]) was below 5 µM in each case.
Regarding `CC(C)Oc1ccccc1CN(C)C(=O)CCCSc1ccc(O)cc1` [Example 41, 4-[(4-Hydroxyphenyl)thio]-N-(2-isopropoxybenzyl)-N-methylbutanamide], the concentration giving a half-maximal response (EC50) (in the assay with NL4-3 strain of HIV-1; in assay [1]) was below 5 µM each time.
With `COc1ccc(SCCCC(=O)N(C)Cc2ccccc2OC)cc1` [Example 42, N-(2-Methoxybenzyl)-4-[(4-methoxyphenyl)thio]-N-methylbutanamide], the EC50 (in the assay with NL4-3 strain of HIV-1; in assay [1]) was below 5 µM throughout.
In the case of `CCOC(=O)N1CCN(c2ccccc2CN(C)C(=O)CCCSc2ccc(O)cc2)CC1` [Example 47, Ethyl 4-[2-({4-[(4-hydroxyphenyl)thio]butanoyl}methylamino)methylphenyl]-piperazine-1-carboxylate], the concentration giving a half-maximal response (EC50) (in the assay with NL4-3 strain of HIV-1; in assay [1]) was below 5 µM each time.
In the case of `CC(C)Oc1ccccc1CN(C)C(=O)CCCSc1ccc(F)cc1` [Example 50, 4-[(4-Fluorophenyl)thio]-N-(2-isopropoxybenzyl)-N-methylbutanamide], the 50% effective concentration (EC50) (in the assay on NL4-3 strain of HIV-1; in assay [1]) was below 5 µM throughout.
On to `CN(Cc1ccccc1N1CCN(CCN2CCOCC2)CC1)C(=O)CCCSc1ccc(O)cc1` [Example 53, 4-[(4-Hydroxyphenyl)thio]-N-methyl-N-{2-[4-(2-morpholin-4-ylethyl)piperazin-1-yl]benzyl}butanamide], for which the concentration giving a half-maximal response (EC50) (in the assay with NL4-3 strain of HIV-1; in assay [1]) was below 5 µM each time.
As to `COc1ccccc1CN(C)C(=O)CCCC(=O)c1ccc(F)cc1` [Example 56, 5-(4-Fluorophenyl)-N-(2-methoxybenzyl)-N-methyl-5-oxopentanamide], the EC50 (in the assay on NL4-3 strain of HIV-1; in assay [1]) was below 5 µM in each case.
`CC(C)Oc1ccccc1CN(C)C(=O)CCCCc1ccc(O)cc1` [Example 59, 5-(4-Hydroxyphenyl)-N-(2-isopropoxybenzyl)-N-methylpentanamide]: the EC50 (in the assay with NL4-3 strain of HIV-1; in assay [1]) was below 5 µM throughout.
Take `COCc1ccccc1CN(C)C(=O)CCCSc1ccc(O)cc1` [Example 65, 4-[(4-Hydroxyphenyl)thio]-N-[2-(methoxymethyl)benzyl]-N-methylbutanamide]: the concentration for a half-maximal effect (EC50) (in the assay on NL4-3 strain of HIV-1; in assay [1]) was below 5 µM each time.
Consider `COc1c(C)cccc1CN(C)C(=O)CCCSc1ccc(O)cc1` [Example 69, 4-[(4-Hydroxyphenyl)thio]-N-(2-methoxy-3-methylbenzyl)-N-methylbutanamide], for which the EC50 (in the assay on NL4-3 strain of HIV-1; in assay [1]) was below 5 µM throughout.
Consider `CN(Cc1ccccc1N1CCN(CCO)CC1)C(=O)CCCSc1ccc(O)cc1` [Example 73, N-{2-[4-(2-hydroxyethyl)piperazin-1-yl]benzyl}-4-[(4-hydroxyphenyl)thio]-N-methylbutanamide], for which the EC50 (in the assay on NL4-3 strain of HIV-1; in assay [1]) was below 5 µM each time.
On to `COc1c(Cl)cc(Cl)cc1CN(C)C(=O)CCCSc1ccc(O)cc1` [Example 74, N-(3,5-Dichloro-2-methoxybenzyl)-4-[(4-hydroxyphenyl)thio]-N-methylbutanamide], for which the 50% effective concentration (EC50) (with NL4-3 strain of HIV-1; in assay [1]) was below 5 µM throughout.
As to `COc1cc(C)ccc1CN(C)C(=O)CCCSc1ccc(O)cc1` [Example 75, 4-[(4-Hydroxyphenyl)thio]-N-(2-methoxy-4-methylbenzyl)-N-methylbutanamide], the concentration giving a half-maximal response (EC50) (with NL4-3 strain of HIV-1; in assay [1]) was below 5 µM throughout.
Regarding `CN(Cc1ccccc1N1CCN(c2ccc(C(F)(F)F)cn2)CC1)C(=O)CCCNCc1ccc(F)cc1` [Example 80, 4-[(4-Fluorophenyl)methylamino]-N-methyl-N-(2-{4-[5-(trifluoromethyl)pyridin-2-yl]piperazin-1-yl}benzyl)butanamide], the concentration for a half-maximal effect (EC50) (with NL4-3 strain of HIV-1; in assay [1]) was below 5 µM in each case.
Consider `COc1ccc(SCCCC(=O)N(C)Cc2cc(F)ccc2OC)cc1` [Example 87, N-(5-Fluoro-2-methoxybenzyl)-4-[(4-methoxyphenyl)thio]-N-methylbutanamide], for which the EC50 (in the assay on NL4-3 strain of HIV-1; in assay [1]) was below 5 µM in each case.
For `C=CCOc1ccccc1CN(C)C(=O)CCCSc1ccc(F)cc1` [Example 90, N-[2-(Allyloxy)benzyl]-4-[(4-fluorophenyl)thio]-N-methylbutanamide], the EC50 (with NL4-3 strain of HIV-1; in assay [1]) was below 5 µM in each case.
For `COc1ccc(Br)cc1CN(C)C(=O)CCCSc1ccc(F)cc1` [Example 92, N-(5-Bromo-2-methoxybenzyl)-4-[(4-fluorophenyl)thio]-N-methylbutanamide], the half-maximal effective concentration (EC50) (in the assay with NL4-3 strain of HIV-1; in assay [1]) was below 5 µM in each case.
`COc1ccccc1CN(C)C(=O)CCCSc1ccc(NS(C)(=O)=O)cc1` [Example 93, N-(2-Methoxybenzyl)-N-methyl-4-{[4-(methylsulfonylamino)phenyl]thio}butanamide]: the 50% effective concentration (EC50) (in the assay with NL4-3 strain of HIV-1; in assay [1]) was below 5 µM throughout.
Regarding `CN(Cc1ccccc1-c1ccco1)C(=O)CCCSc1ccc(F)cc1` [Example 95, 4-[(4-fluorophenyl)thio]-N-[2-(2-furyl)benzyl]-N-methylbutanamide], the EC50 (with NL4-3 strain of HIV-1; in assay [1]) was below 5 µM throughout.
Turning to `CN(Cc1cc(F)cc2c1OCOC2)C(=O)CCCSc1ccc(F)cc1` [Example 96, N-[(6-fluoro-4H-1,3-benzodioxin-8-yl)methyl]-4-[(4-fluorophenyl)thio]-N-methylbutanamide], the EC50 (in the assay with NL4-3 strain of HIV-1; in assay [1]) was below 5 µM in each case.
